Measured values taken from patent US6046168A, “Peptide inhibits blood triglyceride level” (Hankyu-Kyoei Bussan Co., Ltd., priority 1993, dated 2000).
Residues, ends and D or L forms follow the SMILES beside them.

Test system: Healthy albino mice
Test: Serum TG elevation inhibiting action at the time of in vivo lipid loading (olive oil)
Settings: for Ratio of Increase in Blood TG Levels (%): blood collected 3 hours after
Experimental: Serum TG elevation inhibiting action at the time of in vivo lipid loading was examined on the three peptides of the invention inhibiting elevations of TG levels in blood (i.e., the peptide having the amino acid sequence of SEQ ID NO: 1 and the peptides Val-Thr-Leu and Val-Tyr-Pro synthesized by the method described in Example 4). Healthy albino mice (5-10 weeks old; body weight: about 20-30 g) were used in this experiment. To each mouse, 250 mg of olive oil and an aqueous solution of the above peptide were administered orally. Three hours thereafter, blood was collected under anesthesia with Nembutal. After separation of the blood, the TG level in blood was determined.

## CC(C)C[C@H](NC(=O)[C@@H](NC(=O)[C@@H](N)C(C)C)[C@@H](C)O)C(=O)O [Val--Thr--Leu, H-Val-Thr-Leu-OH] (H-Val-Thr-Leu-OH)
Dose 0.1 mg/mouse oral with 250 mg olive oil
  Ratio of Increase in Blood TG Levels (%): 30%
Dose 0.2 mg/mouse oral with 250 mg olive oil
  Ratio of Increase in Blood TG Levels (%): 33%
Dose 1.0 mg/mouse oral with 250 mg olive oil
  Ratio of Increase in Blood TG Levels (%): 73%
Dose 2.5 mg/mouse oral with 250 mg olive oil
  Ratio of Increase in Blood TG Levels (%): 76%
Dose 5.0 mg/mouse oral with 250 mg olive oil
  Ratio of Increase in Blood TG Levels (%): 79%
oral, mice loaded with 250 mg olive oil, blood TG after 3 hours
  ID50: Dose (mg/mouse) exhibiting 50% inhibition: 0.43 mg/mouse
Relative to the proteolysate (= 1), times
  Specific Activity: 65
